The values that follow are results of earlier work, collected in patent publication US20250090522A1 (priority 2021, published 2025).

“Also recorded” adds a separate entry of the source. Where two headings read alike, the source gives them in different places.

Series [1] deals with histamine induced wheal and flare.
Another series addresses H1 receptor (Homo sapiens, UniProt P35367). To be noted: acidic pH.
The subject of series [2] is activator protein-1 (AP-1). Particulars: H1 receptor-dependent and independent mechanisms.
Test in series [3]: not given
The source holds these as a separate data set.

Series [4] has as its system chronic idiopathic urticaria (CIU). To be noted: from 5 to 20 mg/day.
For series [5] the following is noted: 421 patients with allergy/asthma treated for six months; p<0.001 for all scales.
The next series relates to RANTES. Particulars: dose-dependent manner.
Test in series [6]: not given
This is another data set of the same source.

For series [7] the following is noted: withdrawn from the US market in 1999.
[8] abbreviates: airway epithelial cells from nose and lung.

Chain of H1 receptor (P35367 whole entry): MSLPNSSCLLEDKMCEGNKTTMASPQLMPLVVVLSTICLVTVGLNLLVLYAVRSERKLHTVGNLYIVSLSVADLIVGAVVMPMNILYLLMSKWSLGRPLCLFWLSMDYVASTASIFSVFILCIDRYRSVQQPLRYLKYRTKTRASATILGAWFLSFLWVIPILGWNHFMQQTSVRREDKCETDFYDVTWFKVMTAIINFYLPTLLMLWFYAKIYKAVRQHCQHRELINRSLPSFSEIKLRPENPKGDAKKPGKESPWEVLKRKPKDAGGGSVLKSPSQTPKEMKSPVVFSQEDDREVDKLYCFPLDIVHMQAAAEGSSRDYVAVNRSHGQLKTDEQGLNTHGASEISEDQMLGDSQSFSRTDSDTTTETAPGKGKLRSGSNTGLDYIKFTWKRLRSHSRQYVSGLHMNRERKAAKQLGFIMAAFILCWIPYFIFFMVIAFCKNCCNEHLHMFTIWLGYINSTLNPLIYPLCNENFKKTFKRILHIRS

With `O=C(O)COCCN1CCN([C@H](c2ccccc2)c2ccc(Cl)cc2)CC1` [Levocetirizine], in series [1] (histamine wheal and flare data), the “potency among the five modern generation antihistamines” value is recorded as “most potent”. Moreover, the effectiveness versus fexofenadine entry in series [1] (levocetirizine 5 mg per day versus fexofenadine 180 mg per day) is listed as “more effective than fexofenadine”. Further, for the setting “studies in humans”, the “doses that can be safely administered” value is recorded as “up to 30 mg/day”. Also, on H1 receptor, the “enhanced receptor affinity over first generation mepyramine” value is 5 ×. Further, the “activator protein-1 (AP-1) activity” value in series [2] is reported as “inhibit”. Besides, the “time to steady state level” value in series [3] (in vivo) was 40 h. Also, in [4], the “efficacy in CIU on titration” value is “Titratable with increasing efficacy”. For the same molecule, the “quality of life (SF-36)” value in series [5] is listed as “improved quality of life across all treatment domains; also recorded: independently improve quality of life”. In addition, in the series on human rhinovirus (HRV) (setting [8]), the HRV viral replication entry is recorded as “inhibit”, the “HRV-induced ICAM-1” value is given as “inhibit” and the HRV-induced cytokine expression entry was “inhibit”. Moreover, the “antiviral activity against human rhinovirus-16 (HRV-16)” value with human rhinovirus (HRV) (cell and clinical science) was “Cell and clinical science-antiviral”. Besides, the “tumor necrosis factor-a induced production of the chemokine RANTES” value in the series with RANTES was “decrease”.
For the molecule `CC(C)(O)c1ccccc1CC[C@@H](SCC1(CC(=O)O)CC1)c1cccc(/C=C/c2ccc3ccc(Cl)cc3n2)c1` [Montelukast], in series [6] (compared to inhaled corticosteroids (ICS)), the “risk of mental health side effects” value is “no increased risk”. Moreover, the “risk of outpatient depression” value in [6] (patients with a psychiatric history, compared to ICS patients) is on record as “decreased risk”. The “doses administered without clinically relevant side effects” value reads like this: (adult patients, 22 weeks) “up to 200 mg/day”; (short-term studies, approximately one week) “up to 900 mg/day”. For the same molecule, the “linear pharmacokinetics to” value in [3] (in vivo) was “pharmacokinetics to 50 mg/day”. Besides, the drug interactions entry in series [3] (with warfarin, theophylline, digoxin, terfenadine, oral contraceptives, or prednisone) is listed as “no drug interactions”.
As for `COc1ccc(CCN2CCC(Nc3nc4ccccc4n3Cc3ccc(F)cc3)CC2)cc1` [astemizole], the “activity against SARS-CoV” value in the series with SARS-CoV is on record as “astemizole was active against both”. In series [7], the cardiac toxicity entry is on record as “prolongation of the QTc interval”. Also, in the series on MERSCoV, the “activity against MERSCoV” value is given as “astemizole was active against both”.
